Data as given in PubChem BioAssay AID1159558 (GlaxoSmithKline (GSK), 2015).
Calls of active or inactive are those of the source.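 How the source made its calls: active means IC50 against T. cruzi CYP51 below a set limit; inactive means the rest.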

Target: Sterol 14-alpha demethylase (Trypanosoma cruzi (strain CL Brener)) (UniProt Q7Z1V1)
Test: T. cruzi sterol 14-alpha demethylase inhibition – biochemical, recombinant enzyme, mechanism study for T. cruzi antiparasitic project, dose response (AID 1159558);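 further: enzyme in bacterial membranes with Anopheles gambiae CYP reductase and cytochrome b5 partners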
Conditions: recombinant T. cruzi CYP51, BOMCC fluorescence

Sterol 14-alpha demethylase (Trypanosoma cruzi (strain CL Brener)), sequence (Q7Z1V1 whole entry, looked up): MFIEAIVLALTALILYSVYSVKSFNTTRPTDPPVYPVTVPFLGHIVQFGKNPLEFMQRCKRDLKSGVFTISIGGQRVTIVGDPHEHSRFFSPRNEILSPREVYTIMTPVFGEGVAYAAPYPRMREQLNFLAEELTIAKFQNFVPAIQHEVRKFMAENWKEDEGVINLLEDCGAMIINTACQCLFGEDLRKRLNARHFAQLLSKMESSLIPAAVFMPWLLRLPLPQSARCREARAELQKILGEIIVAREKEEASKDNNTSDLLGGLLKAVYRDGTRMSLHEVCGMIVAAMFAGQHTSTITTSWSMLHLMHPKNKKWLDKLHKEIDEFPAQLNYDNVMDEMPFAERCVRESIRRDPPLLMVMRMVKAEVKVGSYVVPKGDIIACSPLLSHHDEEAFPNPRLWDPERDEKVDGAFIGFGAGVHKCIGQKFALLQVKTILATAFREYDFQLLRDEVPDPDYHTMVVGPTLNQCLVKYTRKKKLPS

Compound | IC50
COCCn1cnc2cc(NC(=O)C3CCCCC3)cc(C(=O)N3CCc4sccc4C3)c21 | 50 µM
O=C(Nc1nc2ccccc2[nH]1)c1c(O)c2cccc3c2n(c1=O)CC3 | > 100 µM (inactive)
O=c1oc2ccccc2n1C1CCN(Cc2ccccc2-c2cccnc2)CC1 | 0.1 µM
COc1ccc2ncc(F)c(CCN3CC[C@@H](NC(=O)c4cc5c(s4)CCC5)[C@@H](O)C3)c2n1 | 1.3 µM
O=C(NCCc1cccnc1)c1ccc(-c2ccccc2F)o1 | 0.063 µM
Cn1cncc1CN1CCC2(CC1)COC(Cc1ccccc1)C2 (stereo unspecified) | 1 µM
CCC(c1ccc(F)cc1)n1cncc1-c1cnn(C)c1 (stereo unspecified) | 0.079 µM
O=C(CC1(O)C(=O)N(Cc2ccccc2)c2ccc(Br)cc21)c1cccnc1 (stereo unspecified) | 4 µM
Cc1cc(N(C)C)nc2ccc(Cc3cnc(N)nc3N)cc12 | > 100 µM (inactive)
COc1ccc(OC)c(NC(=O)c2ccc([N+](=O)[O-])o2)c1 | 10 µM
O=C(NCC(c1cccnc1)N1CCc2ccccc2C1)C(=O)Nc1cccc(Cl)c1 (stereo unspecified) | 0.063 µM
Cc1nc(C(=O)Nc2ccc3c(c2)OCO3)nn1-c1ccc(Cl)cc1 | 32 µM
CCOc1cnn(C)c(=O)c1Nc1ccc(C(=O)NCc2ccc(F)cc2)cc1 | 4 µM
CCCn1c(NC(=O)Cc2ccc(Cl)cc2)nc2ccccc21 | > 100 µM (inactive)
C=CCN(Cc1cccs1)C(=O)CSc1nnc(-c2ccc3c(c2)OCO3)o1 | 7.9 µM
CC(C)CC(=O)Nc1cc(C2CC2)nn1-c1nc2c(c(=O)[nH]1)CCCC2 | > 100 µM (inactive)
